The values that follow come from ChEMBL document CHEMBL1137624, “Synthesis and characterization of pyrrolidine derivatives as potent agonists of the human melanocortin-4 receptor” (Bioorg Med Chem Lett, 2007).

For data set [1], the target named is T1, Melanocortin receptor 4 (Homo sapiens, UniProt P32245). As to the kind of experiment: Displacement of [125I]NDP-MSH from human MC4 receptor expressed in HEK293 cells. It is filed as cell-based.
Data set [2] has as its target T1, Melanocortin receptor 4. Briefly: Agonist activity at human MC4 receptor expressed in CHO cells assessed as cAMP accumulation by ELISA. It is filed as functional, cell-based.
Data set [3] deals with T1, Melanocortin receptor 4. As to the kind of experiment: Intrinsic activity at human MC4 receptor expressed in CHO cells assessed as cAMP accumulation relative to alpha-MSH. It is filed as functional, cell-based. Background: cAMP levels reflect the balance of adenylyl cyclase and phosphodiesterase activity.
Data set [4] addresses Melanocyte-stimulating hormone receptor (Homo sapiens, UniProt Q01726). Briefly: Binding affinity at human MC1 receptor.
The target in another data set is Melanocortin receptor 3 (Homo sapiens, UniProt P41968). As to the kind of experiment: Binding affinity at human MC3 receptor.
Another data set concerns the target Melanocortin receptor 5 (Homo sapiens, UniProt P33032). Briefly: Binding affinity at human MC5 receptor.
A short description of data set [5]: Plasma clearance in rat at 2.5 mg/kg, iv. It is filed as ADME, organism-based. Set-up: dose 2.5 mg/kg, route intravenous.
A short description of data set [6]: Volume of distribution in rat at 2.5 mg/kg, iv. It is filed as ADME, organism-based. Set-up: dose 2.5 mg/kg, route intravenous. The settings on record: in vivo.
Data set [7] in a line: Half life in rat at 2.5 mg/kg, iv. Set-up: dose 2.5 mg/kg, route intravenous. The settings on record: in vivo. It is filed as ADME, organism-based.
Data set [8] is described as follows: Concentration in rat brain at 2.5 mg/kg, iv after 1 hr. The format is ADME, organism-based. The following applies: read-out: Drug uptake. Set-up: dose 2.5 mg/kg, route intravenous.
Data set [9] is described as follows: Concentration in rat brain at 2.5 mg/kg, iv after 4 hrs. The following applies: read-out: Drug uptake. It is filed as ADME, organism-based. Set-up: dose 2.5 mg/kg, route intravenous.
Data set [10] in a line: Ratio of drug level in brain to plasma in rat at 2.5 mg/kg, iv. The format is ADME, organism-based. Set-up: dose 2.5 mg/kg, route intravenous. The settings on record: read-out: BPR.
The nature of data set [11]: Distribution coefficient, log D by shake flake method. The following applies: octanol/water. The format is physicochemical.
The nature of data set [12]: Apparent permeability across apical to basolateral side of Caco-2 cells. The format is ADME, cell-based. The settings on record: human.
Another data set deals with Caco-2. As to the kind of experiment: Ratio of permeability from […] side of Caco-2 cells. The format is ADME, cell-based. The following applies: human. A general note: Caco-2 cells form a polarised layer with tight junctions and transporters.
Data set [13] can be described thus: Cmax in rat at 10 mg/kg, po after 3 hrs. The settings on record: in vivo. Set-up: dose 10 mg/kg, route oral. It is filed as ADME, organism-based.
Data set [14] in a line: AUC in rat at 10 mg/kg, po. It is filed as ADME, organism-based. Set-up: dose 10 mg/kg, route oral. The following applies: plasma.
A short description of data set [15]: Oral bioavailability in rat at 10 mg/kg, po. The format is ADME, organism-based. The following applies: in vivo.
In data set [16] the test system is Rattus norvegicus. As to the kind of experiment: Decrease in cumulative food intake in high-fat diet fed CD rat at 30 mg/kg, ip after 1 to 6 hrs. The format is functional, organism-based. Set-up: dose 30 mg/kg.
The species entered for data set [17] is Rattus norvegicus. As to the kind of experiment: Decrease in cumulative food intake in high-fat diet fed CD rat after 24 hrs. The format is functional, organism-based.
Data set [18] deals with Rattus norvegicus. As to the kind of experiment: Decrease in cumulative food intake in high-fat diet fed CD rat at 5 mg/kg, ip after 1 to 6 hrs. Set-up: dose 5 mg/kg. The format is functional, organism-based.

Active and inactive are the calls of the source.

The term Ki denotes a dissociation constant, usually derived from enzyme kinetics or from competition with a known ligand. The EC50 is the concentration that produces a half-maximal response. As usually defined, the clearance is a measure of how efficiently the substance is removed, as volume per time. A high value points to a high capacity for elimination. A word on the Vd: it is a proportionality between amount in the body and measured concentration, not a real space. The term half-life denotes the time needed for the level to fall by half in the phase considered. As a reminder, the logD is the decadic logarithm of the distribution of all forms, ionised or not, between an organic phase and buffer at a given pH. Low readings indicate lower lipophilicity, high ones higher lipophilicity. In general, Papp A→B refers to how fast a substance crosses the layer from the apical side. By Cmax is commonly meant the highest concentration seen after dosing. In general, AUC refers to concentration integrated over time. The bioavailability is the share of a dose that reaches the circulation, judged against a reference dose that is usually intravenous. Low readings indicate little systemic uptake, high ones much systemic uptake.

T1 sequence (P32245 whole entry): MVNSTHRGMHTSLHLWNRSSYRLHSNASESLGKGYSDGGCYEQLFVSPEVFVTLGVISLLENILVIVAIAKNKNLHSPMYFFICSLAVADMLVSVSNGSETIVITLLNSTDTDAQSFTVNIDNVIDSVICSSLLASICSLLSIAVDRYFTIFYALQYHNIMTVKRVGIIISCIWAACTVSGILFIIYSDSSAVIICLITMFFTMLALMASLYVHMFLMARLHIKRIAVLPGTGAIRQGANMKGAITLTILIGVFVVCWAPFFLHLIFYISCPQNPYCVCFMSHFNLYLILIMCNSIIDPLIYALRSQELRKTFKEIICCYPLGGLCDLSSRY
Melanocyte-stimulating hormone receptor, sequence (Q01726 whole entry): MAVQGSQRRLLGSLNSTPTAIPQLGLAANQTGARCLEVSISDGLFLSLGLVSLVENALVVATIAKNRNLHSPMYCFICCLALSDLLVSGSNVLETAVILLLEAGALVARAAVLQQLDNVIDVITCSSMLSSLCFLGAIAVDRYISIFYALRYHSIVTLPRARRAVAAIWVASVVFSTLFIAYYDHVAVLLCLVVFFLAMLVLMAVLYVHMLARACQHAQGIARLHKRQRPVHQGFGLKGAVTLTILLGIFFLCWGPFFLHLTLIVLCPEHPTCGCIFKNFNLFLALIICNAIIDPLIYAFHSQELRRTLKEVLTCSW
Melanocortin receptor 5, sequence (P33032 whole entry): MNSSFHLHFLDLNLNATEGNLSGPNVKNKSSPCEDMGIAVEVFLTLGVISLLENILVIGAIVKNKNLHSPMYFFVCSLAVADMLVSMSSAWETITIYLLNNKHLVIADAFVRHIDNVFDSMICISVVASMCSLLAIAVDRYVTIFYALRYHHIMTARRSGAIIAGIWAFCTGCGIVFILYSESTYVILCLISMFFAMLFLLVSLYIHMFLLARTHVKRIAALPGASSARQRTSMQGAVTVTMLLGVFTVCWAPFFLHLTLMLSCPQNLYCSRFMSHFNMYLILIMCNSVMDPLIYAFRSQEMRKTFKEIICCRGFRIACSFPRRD
Melanocortin receptor 3, sequence (P41968 whole entry): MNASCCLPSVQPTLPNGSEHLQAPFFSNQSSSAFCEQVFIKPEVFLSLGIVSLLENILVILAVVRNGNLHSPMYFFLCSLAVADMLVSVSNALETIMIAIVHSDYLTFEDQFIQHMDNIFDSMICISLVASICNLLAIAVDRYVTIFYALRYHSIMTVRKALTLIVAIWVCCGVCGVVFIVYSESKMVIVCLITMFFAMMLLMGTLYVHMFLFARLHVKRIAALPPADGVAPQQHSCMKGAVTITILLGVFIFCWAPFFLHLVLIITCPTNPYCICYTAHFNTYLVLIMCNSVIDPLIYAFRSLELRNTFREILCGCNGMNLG

On to `Cc1ccc(N2CCN(C(=O)[C@@H]3CN(C4CCOCC4)C[C@H]3c3ccc(Cl)cc3)CC2)c([C@@H](N)C(C)C)c1`, for which the Ki on Melanocortin receptor 4 [1] is 11 nM; in data set [4], 3350 nM; on Melanocortin receptor 3, 1600 nM; on Melanocortin receptor 5, 240 nM. Further, the EC50 at Melanocortin receptor 4 [2] amounted to 24 nM. Besides, the Intrinsic activity at Melanocortin receptor 4 [3] turned out to be 105%. This compound came in with a clearance in data set [5] of 118 mL/min/kg. Also, in data set [6], the Vd came to 270 L/kg. Besides, the half-life in [7] was 27 h. For the same compound, the concentration at 1 h in [8] stood at 5 ng/g. Further, in data set [9], the concentration at 4 h is 32 ng/g. In data set [10], the Kp is 0.7. The logD in data set [11] was 1.8. Also, in data set [12], the Papp A→B amounted to 0.8 ×10⁻⁶ cm/s. Also, the Ratio in the data set with Caco-2 is recorded as 25. This compound registered a Cmax in data set [13] of 16 ng/mL. In [14], this compound showed an AUC of 154 ng·h/mL. The compound also gave a bioavailability in data set [15] of 22%. Further, the result with Rattus norvegicus [16] was Active. Moreover, the Activity result in the data set filed under Rattus norvegicus [17] is “Dose-dependent effect”.
On to `CCNC(C)Cc1cccc(C(F)(F)F)c1` (stereo unspecified), for which, in the data set on Rattus norvegicus [18], the outcome was Active.
